Source: US11639345B2, “Methionine metabolic pathway inhibitors” (MIGAL—GALILEE RESEARCH INSTITUTE LTD., priority 2018, dated 2023)

Columns and labels:
[1] = system: E. coli lacking the endogenic MetB CGS gene, transformed to express the CGS from Arabidopsis; test: Growth of engineered E. coli expressing Arabidopsis CGS in M9 minimal media, with and without methionine; type: cell-based; settings: for E. coli Assay LE395 (0-5): score 0-5, growth of E. coli with Arabidopsis CGS gene in M9 minimal media; for E. coli specificity (MOA): score, growth with vs without external methionine (40 mg/L)
Protocol: In addition to the direct binding evaluation, specific assay to test the compounds activity and specificity were also developed. In this assay, E. coli cells, lacking the endogenic MetB CGS gene and transformed to express the CGS from Arabidopsis, were used. These cells were grown on M9 minimal media with and without external methionine supplemented to the cells, in the presence of the compounds of the embodiments. These selected compounds of the embodiments, capable of inhibiting the cell growth on M9, but incapable of affecting the cell growth when supplemented with methionine, were validated as methionine-pathway specific inhibitors.
In this assay, Methionine auxotroph E. coli mutant was transformed with PQE-30 vector containing the Arabidopsis CGS gene as previously described in Yael Hacham et al., Plant Physiol., February 2002, 128(2): 454-462. In order to test the effect of the small molecule inhibitors on the CGS and methionine pathway, growth curves of the E. coli in M9 minimal media with […] were measured with and without the addition of external methionine (40 mg/L) in the presence of variable compound concentrations. E. coli growth curves were measured by following the optical density at 600 nm of bacteria in 96 well-plate placed within Tecan M200 plate reader in orbital shaking mode at 37° C. The slope of each curve was estimated using the ‘linest’ function in Excel.

Tobacco CGS = molecular target: T1, Tobacco CGS (Nicotiana tabacum, UniProt Q9ZPL5); test: Micro Scale Thermophoresis (MST) direct binding to CGS; parameters: 6xHIS (N, cleaved yes); GB1 solubility tag (N, cleaved yes); made in house; host or cells: E. coli BL21; settings: score 0-5; binding to labelled Tobacco CGS
T1 sequence (Q9ZPL5 79-540): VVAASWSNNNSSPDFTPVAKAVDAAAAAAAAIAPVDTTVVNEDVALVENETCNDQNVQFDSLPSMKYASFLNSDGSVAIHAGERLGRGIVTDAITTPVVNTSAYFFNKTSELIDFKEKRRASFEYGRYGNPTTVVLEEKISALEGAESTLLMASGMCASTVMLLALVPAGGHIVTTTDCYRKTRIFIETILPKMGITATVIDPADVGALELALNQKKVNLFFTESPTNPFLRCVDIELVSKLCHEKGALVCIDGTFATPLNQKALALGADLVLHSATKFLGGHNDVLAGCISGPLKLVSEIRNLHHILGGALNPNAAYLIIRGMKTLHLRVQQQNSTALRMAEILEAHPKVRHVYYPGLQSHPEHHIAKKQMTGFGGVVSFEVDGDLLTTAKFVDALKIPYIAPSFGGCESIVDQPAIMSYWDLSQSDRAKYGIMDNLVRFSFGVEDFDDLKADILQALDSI
Protocol: The direct binding of the compounds of the embodiments to the CGS was tested by Micro Scale Thermophoresis (MST). In the MST assay, the CGS protein was labelled with a fluorophore, the samples were heated, and changes in fluorescence were measured as a function of the ligand concentration. In the MST assay, similar to the expression and purification described above, the recombinant Tobacco CGS protein was expressed in E. coli BL21 cells and purified to homogeneity. For that particular purpose, the pET-11 vector containing the DNA sequence of Tobacco CGS with an N-terminus […] tag followed by a TEV-cleavable GB1 solubility tag was cloned and transformed into the bacteria cells. Cells were cultured to OD=0.8, and protein expression was induced by the addition of 1 mM IPTG. The cells were cultured for additional 16 hours temperature 25° C. Following cellular lysis, the soluble fraction was passed through the nickel column and the bound HIS-tagged protein was eluted by 300 mM imidazole. Then, the tags […] and GB1 were cleaved in dialysis o/n and the mixtures passed again through the nickel column to separate the CGS from the TEV and HIS-GB1 constructs. As a final step the CGS was run on S75 size exclusion chromatography. Thus, the MST assay was performed to measure the biding of the compounds to the CGS protein. For this purpose, the CGS was labelled with commercially available amine reactive fluorophore (Cat # MO-[…], NanoTemper) according to the manufacture instructions. The MST binding curves were then measured using the Monolith NT.115 apparatus by incubating the labelled protein with the indicated compounds in a dose-response manner.

Roquette = Roquette assay spray; type: in vivo
Arabidopsis thaliana = Arabidopsis thaliana root growth inhibition; type: in vivo; settings: 168 h, root length ratio vs DMSO control, 50 μM compound, lower values indicate shorter root, larger effect, read-out: Arabidopsis (relative to DMSO)
Protocol: Finally, FIGS. 7a-7o are the photos of the Arabidopsis thaliana plants and the inhibition of their roots growth by the compounds of the present invention. These experiments were conducted as follows. Seeds were washed with 70% ethanol for one minute and then with sterile water. Sterilisation was performed with 50% bleaching solution (3%) and 0.2% Triton x-100 for ten minutes followed by a five-time wash with sterile water. The seeds were placed in six well-plates with half Murashige and Skoog medium (MS; Duchefa, Haarlem, Netherlands), containing 1% sucrose (w/v), pH 5.8. The plates with Arabidopsis thaliana seeds were placed at 4° C. for two days and then transferred for seven days to growth chamber (22±2° C.) at day/light cycles of 16/8 h. The plates were placed vertically. In each plate, a control including 0.1% DMSO in the medium was added. The compounds of the present invention were tested for their herbicidal efficiency by diluting 1000 times a 50 mM stock in DMSO leading to a final concentration of 50 μM with 0.1% DMSO.
In Tables 1, 2 and 4 above, Arabidopsis root length was measured after addition of 50-μM compound compared with the negative control (DMSO) treatment. Length values indicate the ratio between non-treated plates ([…]) and the length after the addition of 50 uM of each compound. Lower values indicate shorter root length, and consequently, larger effect.

Row | SMILES | E. coli Assay LE395 (0-5) [1] | E. coli specificity (MOA) [1] | MST Tobacco (0-5) (Tobacco CGS) | Roquette assay spray (twice average) (Roquette) | activity at 50 µM (Arabidopsis thaliana) | Roquette assay spray (single average) (Roquette) | TEV (relative to DMSO) (TEV (relative to DMSO))
1 | COc1cccc(C(=O)Nc2cccc(-c3nc(C)cc(=O)[nH]3)c2)c1 [IML-11] | 3 | 4 | 3 |  |  |  | 
2 | Cc1cc(=O)[nH]c(-c2cccc(NC(=O)c3ccc(O)cc3F)c2)n1 [IML-14] | 3 | 4 | 3 |  |  |  | 
3 | Cc1cc(=O)[nH]c(-c2ccc(NC(=O)c3c(O)cccc3F)cc2)n1 [IML-15] | 3 | 4 | 1 |  |  |  | 
4 | Cc1cc(=O)[nH]c(-c2cccc(NC(=O)c3ccccc3OC(F)F)c2)n1 [IML-22] | 2 | 4 | 3 |  |  |  | 
5 | CCc1ccc(C(=O)Nc2cccc(-c3nc(C)cc(=O)[nH]3)c2)cc1 [IML-24] |  |  |  | 2.0 | 35% |  | 
6 | COc1ccnc(C(=O)Nc2cccc(-c3nc(C)cc(=O)[nH]3)c2)c1 [IML-62] | 3 | 5 | 4 |  |  |  | 
7 | Cc1ccc(C(=O)Nc2cccc(-c3nc(C)cc(O)n3)c2)nc1 [IML-66] | 3 | 4 | 3 |  |  |  | 
8 | COc1cccc(C(=O)Nc2cccc(-n3cc(C)nc3O)c2)c1 [IML-67] | 3 | 4 |  |  |  |  | 
9 | COc1cccc(C(=O)Nc2cccc(-c3cc(C(F)(F)F)[nH]n3)c2)c1 [IML-70] | 3 | 5 |  |  |  |  | 
10 | CCc1ccccc1NC(=O)CNC(=O)c1ccc2nn[nH]c2c1 [IML-102] |  |  | 5 |  |  |  | 
11 | CC(=O)Nc1cccc(NC(=O)CNC(=O)c2ccc3nn[nH]c3c2)c1 [IML-110] | 2 | 4 | 5 |  |  |  | 
12 | CCc1ccccc1NC(=O)CNC(=O)c1ccc2c(c1)nnn2CC [IML-112] |  |  | 4 |  |  |  | 
13 | CCc1ccccc1NC(=O)CN(C)C(=O)c1ccc2nc[nH]c2c1 [IML-113] |  |  | 5 |  |  |  | 
14 | O=C(O)C1CN(C(=O)c2ccn(-c3ccccc3)n2)c2ccccc21 (stereo not drawn) [IML-121] | 2 | 4 |  | 4.0 | 9% | 3.0 | 0.28
15 | O=C(O)C1CN(C(=O)c2cc(-c3ccccc3)on2)c2ccccc21 (stereo not drawn) [IML-124] | 2 | 5 |  | 3.0 | 0% |  | 0.30
16 | O=C(O)C1CN(C(=O)c2cc(-c3ccccc3)[nH]n2)c2ccccc21 (stereo not drawn) [IML-125] |  |  |  |  | 45% |  | 
17 | O=C(CNC(=O)c1ccc2[nH]ncc2c1)Nc1ccccc1 [IML-134] | 3 | 4 | 3 |  | 67% |  | 

Row | SMILES | E. coli Assay LE395 (0-5) [1] | E. coli specificity (MOA) [1] | MST Tobacco (0-5) (Tobacco CGS) | Roquette assay spray (twice average) (Roquette) | activity at 50 µM (Arabidopsis thaliana) | Roquette assay spray (single average) (Roquette) | TEV (relative to DMSO) (TEV (relative to DMSO))
18 | O=C(c1cc(-c2ccccc2)on1)N1CCc2cc([N+](=O)[O-])ccc21 [IML-161] |  |  |  |  |  |  | 0.14
19 | O=C(O)C1CN(C(=O)c2cnn(-c3ccccc3)c2)c2ccccc21 (stereo not drawn) [IML-162] | 3 | 5 |  |  | 38% | 2.0 | 0.20
20 | O=C(O)C1Cc2ccccc2N1C(=O)c1cc(-c2ccccc2)on1 (stereo not drawn) [IML-163] | 4 | 5 |  | 4.0 | 0% |  | 0.31
21 | O=C(O)CC1CN(C(=O)c2cc(-c3ccccc3)on2)c2ccccc21 (stereo not drawn) [IML-164] |  |  |  | 3.0 | 4% | 3.0 | 0.11
22 | COc1cccc(-c2cc(C(=O)N3CC(C(=O)O)c4ccccc43)no2)c1 (stereo not drawn) [IML-166] |  |  |  | 4.0 | 0% | 2.0 | 0.06
23 | O=C(O)C1CN(C(=O)c2cc(-c3ccccc3Cl)on2)c2ccccc21 (stereo not drawn) [IML-167] |  |  |  | 3.5 | 0% | 1.3 | 0.31
24 | O=C(O)C1CN(C(=O)c2cc(-c3cccnc3)on2)c2ccccc21 (stereo not drawn) [IML-180] | 1 | 5 | 3 |  | 58% |  | 0.25
25 | O=C(O)C1CN(C(=O)c2cc(-c3cccc(Cl)c3)on2)c2ccccc21 (stereo not drawn) [IML-181] |  |  |  |  | 0% | 0.5 | 0.22
26 | O=C(c1ccc2[nH]ncc2c1)N1CCCC(Nc2ccccc2)C1 (stereo not drawn) [IML-203] |  |  |  |  | 50% |  | 
27 | O=C(c1ccc2[nH]ncc2c1)N1CCC(Nc2ccccc2)C1 (stereo not drawn) [IML-204] |  |  |  |  | 35% |  | 
28 | Cc1c(Cl)cccc1Nc1nc(-c2cccc(NC(=O)c3ccccc3)c2)cs1 [IML-211] | 4 |  |  |  |  |  | 
29 | COc1ccc(Cc2nc(-c3cccc(NC(=O)c4ccccc4F)c3)no2)cc1 [IML-217] | 3 | 5 | 2 |  |  |  | 
30 | COc1cccc(Nc2nc(-c3cccc(N4C(=O)c5ccccc5C4=O)c3)cs2)c1 [IML-218] | 3 | 5 |  |  |  |  | 
31 | O=C(Nc1cccc(-c2cn(Cc3ccccc3)nn2)c1)c1cc(C(F)(F)F)ccn1 [IML-223] | 5 | 5 |  |  |  |  | 
32 | O=C(Nc1cccc(-c2cn(Cc3ccccc3)nn2)c1)c1cccc(Cl)c1 [IML-232] |  |  |  | 4.0 | 68% | 1.0 | 
33 | CCc1nc(-c2cncc(NC(=O)c3cccc(Cl)c3)c2)no1 [IML-234] |  |  |  | 3.0 |  | 1.5 | 0.75
34 | COc1cccc(-c2cc(C(=O)N3C[C@H](C(=O)O)c4ccccc43)no2)c1 [IML-238] |  |  |  | 2.0 | 3% |  | 0.29
